Test results reported in ChEMBL document CHEMBL1130444, “Inhibitory effects of pentamidine analogues on spermine stimulated ligand binding to the NMDA receptor complex” (Bioorg Med Chem Lett, 1997).
pIC50: −log10 of the molar value. Where “and” joins values, the source holds several entries; their conditions need not be identical. Equal values may be shown once.

Key:
[1] = target: T1, Glutamate NMDA receptor (Rattus norvegicus) (UniProt P35439+Q00959+Q00960+Q00961+Q62645+Q8VHN2+Q9R1M7); assay: Hill coefficient for binding to NMDA receptor; format: protein-complex assay
[2] = target: T1, Glutamate NMDA receptor (Rattus norvegicus); assay: Hill coefficient for binding to NMDA receptor in TRIS acetate pH 7; format: protein-complex assay
Glutamate NMDA receptor [3] = assay: Inhibition of [3H]MK-801 binding to the NMDA receptor of rat hippocampal membranes, measured in buffer containing 20 mM TRIS acetate, pH 7; format: cell membranes, Membrane
[4] = target: T1, Glutamate NMDA receptor (Rattus norvegicus); assay: Effect of spermine on the inhibition of [3H]-MK-801 binding to the NMDA receptor TRIS acetate, pH 7; format: protein-complex assay
[5] = target: T1, Glutamate NMDA receptor (Rattus norvegicus); assay: Effect of spermine on the inhibition of [3H]MK-801 binding to the NMDA receptor TRIS acetate, pH 7; format: protein-complex assay
Glutamate NMDA receptor [6] = assay: Inhibition of [3H]MK-801 binding to the NMDA receptor of rat hippocampal membranes, measured in buffer containing 50 mM TRIS acetate, pH 7; format: cell membranes, Membrane
[7] = target: T1, Glutamate NMDA receptor (Rattus norvegicus); assay: Effect of spermine on the inhibition of [3H]MK-801 binding to the NMDA receptor at 100 TRIS acetate, pH 7; format: protein-complex assay
Glutamate NMDA receptor [8] = assay: Inhibition of [3H]MK-801 binding to NMDA receptor in 50 mM TRIS acetate pH 7; format: protein-complex assay, Rattus norvegicus
[9] = target: T1, Glutamate NMDA receptor (Rattus norvegicus); assay: Effect of spermine on inhibition of [3H]MK-801 binding to NMDA receptor at 100 TRIS acetate, pH 7; format: protein-complex assay

## N=C(N)c1ccc(OCCCCCOc2ccc(C(=N)N)cc2)cc1 [PENTAMIDINE]
[1]
  nH: 1.17 and 1.15
[2]
  nH: 0.93
Glutamate NMDA receptor [3]
  pIC50: 5.88 and 5.76
[4]
  Increase in IC50: 9.5
[5]
  Increase in IC50: 30.7 and 21.4
Glutamate NMDA receptor [6]
  pIC50: 5.51

## COc1cc(C(=N)N)ccc1OC/C=C/COc1ccc(C(=N)N)cc1OC
[1]
  nH: 1.19
[2]
  nH: 1.28 and 1.21
Glutamate NMDA receptor [3]
  pIC50: 4.92 and 4.90
[7]
  Increase in IC50: 2.87 and 4.15
[5]
  Increase in IC50: 14.3 and 12.2
Glutamate NMDA receptor [6]
  pIC50: 4.51 and 4.58

## C(=C/COc1ccc(C2=NCCN2)cc1)/COc1ccc(C2=NCCN2)cc1
[1]
  nH: 1.21
[2]
  nH: 0.99
Glutamate NMDA receptor [3]
  pIC50: 4.73 and 4.80
[4]
  Increase in IC50: 5.48
[5]
  Increase in IC50: 9.9 and 12.1
Glutamate NMDA receptor [6]
  pIC50: 4.57

## COc1cc(C(=N)N)ccc1OC/C=C\COc1ccc(C(=N)N)cc1OC
[1]
  nH: 1.21 and 1.46
[2]
  nH: 2.14 and 1
Glutamate NMDA receptor [3]
  pIC50: 4.30 and 4.21
Glutamate NMDA receptor [8]
  pIC50: 4.14
[7]
  Increase in IC50: 1.72 and 2.87
[5]
  Increase in IC50: 4.7 and 4.5
Glutamate NMDA receptor [6]
  pIC50: 4.02

## C(=C\COc1ccc(C2=NCCN2)cc1)/COc1ccc(C2=NCCN2)cc1
[1]
  nH: 0.95 and 0.87
[2]
  nH: 0.98 and 0.81
Glutamate NMDA receptor [3]
  pIC50: 4.88 and 4.86
[4]
  Increase in IC50: 4.14
[9]
  Increase in IC50: 4.88
[5]
  Increase in IC50: 15.3 and 12.7
Glutamate NMDA receptor [6]
  pIC50: 4.42 and 4.43

## COc1cc(C2=NCCN2)ccc1OC/C=C\COc1ccc(C2=NCCN2)cc1OC
[1]
  nH: 1.13 and 1.29
[2]
  nH: 1.33 and 1.15
Glutamate NMDA receptor [3]
  pIC50: 4.58 and 4.63
[4]
  Increase in IC50: 4.62 and 3.43
[5]
  Increase in IC50: 7.8 and 8.6
Glutamate NMDA receptor [6]
  pIC50: 4.49 and 4.31

## N=C(N)c1ccc(OC/C=C\COc2ccc(C(=N)N)cc2)cc1
[1]
  nH: 1.39 and 1.38
[2]
  nH: 1.13
Glutamate NMDA receptor [3]
  pIC50: 5.74 and 5.83
[4]
  Increase in IC50: 11.9
[5]
  Increase in IC50: 29.1 and 38.2
Glutamate NMDA receptor [6]
  pIC50: 5.37

## N=C(N)c1ccc(OC[C@@H](O)[C@H](O)COc2ccc(C(=N)N)cc2)cc1
[1]
  nH: 1.04 and 1.09
[2]
  nH: 1.23 and 1.08
Glutamate NMDA receptor [3]
  pIC50: 4.61 and 4.65
[4]
  Increase in IC50: 9.3
[7]
  Increase in IC50: 8.1
[5]
  Increase in IC50: 28.4 and 22.4
Glutamate NMDA receptor [6]
  pIC50: 4.18

## N=C(N)c1ccc(OCCCCOc2ccc(C(=N)N)cc2)cc1
[1]
  nH: 1.11 and 1.36
[2]
  nH: 0.99
Glutamate NMDA receptor [3]
  pIC50: 5.58 and 5.52
[4]
  Increase in IC50: 10.2
[5]
  Increase in IC50: 28.8 and 35
Glutamate NMDA receptor [6]
  pIC50: 5.29

## COc1cc(C2=NCCN2)ccc1OC/C=C/COc1ccc(C2=NCCN2)cc1OC
[1]
  nH: 1.04 and 0.96
[2]
  nH: 1.09 and 1.16
Glutamate NMDA receptor [3]
  pIC50: 4.46 and 4.48
Glutamate NMDA receptor [8]
  pIC50: 4.08
[7]
  Increase in IC50: 4.24 and 3.79
[5]
  Increase in IC50: 12.7 and 13.8
Glutamate NMDA receptor [6]
  pIC50: 4.20

## N=C(N)c1ccc(OC/C=C/COc2ccc(C(=N)N)cc2)cc1
[1]
  nH: 0.98 and 0.88
[2]
  nH: 0.71
Glutamate NMDA receptor [3]
  pIC50: 5.61 and 5.71
[4]
  Increase in IC50: 9.5
[5]
  Increase in IC50: 21.7 and 27.8
Glutamate NMDA receptor [6]
  pIC50: 5.42
